1 molecule from US20250092014A1, “COMPOUNDS AND METHODS OF ACTIVATING LIPOPROTEIN LIPASE” (Metrea Biosciences, Inc., priority 2021, published 2025) can be followed below.

“Also recorded” adds a separate entry of the source.

In assay [1] the target is T1, Human LPL (Homo sapiens, UniProt P06858).
T1 construct: purchased R&D Systems; host or cells: LPL added from outside to CHO pgsA-745 cells stably transfected with human GPIHBP1-HA
T1 sequence (P06858 28-475): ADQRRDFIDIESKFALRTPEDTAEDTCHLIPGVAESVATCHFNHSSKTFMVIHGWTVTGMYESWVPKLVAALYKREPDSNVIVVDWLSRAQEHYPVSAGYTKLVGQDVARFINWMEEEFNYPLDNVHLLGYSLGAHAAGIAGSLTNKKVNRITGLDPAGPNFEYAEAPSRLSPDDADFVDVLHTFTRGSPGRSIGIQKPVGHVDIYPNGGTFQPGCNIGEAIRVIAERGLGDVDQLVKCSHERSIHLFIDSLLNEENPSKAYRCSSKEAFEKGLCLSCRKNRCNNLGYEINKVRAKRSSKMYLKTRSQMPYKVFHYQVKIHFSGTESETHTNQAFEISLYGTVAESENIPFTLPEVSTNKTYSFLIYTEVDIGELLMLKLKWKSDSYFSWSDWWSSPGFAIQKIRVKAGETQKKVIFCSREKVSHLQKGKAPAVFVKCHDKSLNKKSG
T1 sequence (Q8IV16 21-151 partner limits assumed): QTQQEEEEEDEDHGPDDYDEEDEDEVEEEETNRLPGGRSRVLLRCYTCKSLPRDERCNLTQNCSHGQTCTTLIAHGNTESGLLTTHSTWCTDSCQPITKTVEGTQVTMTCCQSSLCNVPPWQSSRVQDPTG
Put plainly: Cellular lipolysis assay, intrinsic activation (Angptl4 omitted), CHO pgsA-745/GPIHBP1 cells. The assay is classed as cell-based. The settings on record: 30 μM, 10 PM, 3 μM and 1 μM doses, compared to 50 nM LPL alone. As to the method: (§1) Chinese hamster ovary (CHO) mutant pgsA-745 cells were grown in F-12K media (ATCC) with 10% FBS and penicillin/streptomycin. One day prior to transfection 300,000 cells were seeded per well in a 6 well plate and cultured overnight. 2 μg of human GPIHBPI in pcDNA3.1(+)—C-HA (Genscript) were transfected using Lipofectamine 3000 (Invitrogen) and the cells were cultured for 24 hours. Cells were split into selection media (600 μg/ml G418 (Gibco)) and a stable pool was established and verified by qPCR and western blotting using anti-HA (Cell Signaling) and GPIHBP1 (Santa Cruz) antibodies (data not shown).
CHO pgsA-745 cells overexpressing GPIHBPI were seeded at 200,000 cells per well in 24 well plates and cultured overnight. Media was replaced with serum-free F-12K media containing 0.1 U/ml heparin and cultured for 2 hours to remove surface bound endogenous LPL, then cells were washed with PBS. Human LPL (R&D Systems) was diluted to 50 nM in serum free media and added for 30 minutes gently shaking at room temperature, then cells were washed with PBS to remove unbound LPL. […] Test compound and ANGPTL4 were removed and cells washed with PBS. […] Media was removed and fluorescence read at Ex482/Em515.

Assay [2] concerns the target T1, Human LPL. As to the kind of experiment: Cellular lipolysis assay, Angptl4 protection, CHO pgsA-745/GPIHBP1 cells. As to conditions: 30 μM, 10 μM, 3 μM, 1 M and 0.3 μM doses, compared to 50 nM LPL with 30 nM Angptl4. In kind it is cell-based. As to the method:
as §1
CHO pgsA-745 cells overexpressing GPIHBPI were seeded at 200,000 cells per well in 24 well plates and cultured overnight. Media was replaced with serum-free F-12K media containing 0.1 U/ml heparin and cultured for 2 hours to remove surface bound endogenous LPL, then cells were washed with PBS. Human LPL (R&D Systems) was diluted to 50 nM in serum free media and added for 30 minutes gently shaking at room temperature, then cells were washed with PBS to remove unbound LPL. Test compounds were diluted in serum free media and added to cells for 20 minutes at room temperature gently shaking, followed by 10× ANGPTL4 (30 nM final concentration) for another 20 minutes. Test compound and ANGPTL4 were removed and cells washed with PBS. […] Media was removed and fluorescence read at Ex482/Em515.

As to `O=C(O)Cc1cc(F)ccc1NC(=O)c1ccc(N2CCCCC2)c(NC(=O)c2nn(CC(F)(F)F)c3ccccc23)c1` [Compound 158, 2-(5-fluoro-2-(4-(piperidin-1-yl)-3-(1-(2,2,2-trifluoroethyl)-1H-indazole-3-carboxamido)benzamido)phenyl)acetic acid], the “lipolysis activity (EnzChek substrate fluorescence), intrinsic activation of LPL” value at Human LPL [1] was “intrinsic activation; also recorded: significantly increased lipolysis activity”. Moreover, the “lipolysis activity (EnzChek substrate fluorescence), protection of LPL from inactivation by ANGPTL4” value on Human LPL [2] is “protective action; also recorded: significantly increased lipolysis activity”.
